# Molecular target: human σ1 receptor (Homo sapiens, UniProt Q99720)
# Assay: Human σ1 receptor radioligand assay ([3H](+)-pentazocine, transfected HEK-293 membranes)
# Assay type: binding
# Parameters: μ and σ1 dual binding: key to the marks not given beside the values
# Conditions: one class symbol for both Ki-σ1 (human σ1 receptor, A1) and Ki-μ (human μ-opioid receptor, A2)
# Experimental: Human σ1 Receptor Radioligand Assay
# To investigate binding properties of test compounds to human σ1 receptor, transfected HEK-293 membranes and [^3H](+)-pentazocine (Perkin Elmer, NET-1056), as the radioligand, were used. The assay was carried out with 7 μg of membrane suspension, 5 nM of [^3H](+)-pentazocine in either absence or presence of either buffer or 10 μM Haloperidol for total and non-specific binding, respectively. Binding buffer contained Tris-HCl 50 mM at pH 8. Plates were incubated at 37° C. for 120 minutes. After the incubation period, the reaction mix was then transferred to MultiScreen HTS, FC plates (Millipore), filtered and plates were washed 3 times with ice-cold 10 mM Tris-HCL (pH7.4). Filters were dried and counted at approximately 40% efficiency in a MicroBeta scintillation counter (Perkin-Elmer) using EcoScint liquid scintillation cocktail
# human σ1 receptor, sequence (Q99720 whole entry): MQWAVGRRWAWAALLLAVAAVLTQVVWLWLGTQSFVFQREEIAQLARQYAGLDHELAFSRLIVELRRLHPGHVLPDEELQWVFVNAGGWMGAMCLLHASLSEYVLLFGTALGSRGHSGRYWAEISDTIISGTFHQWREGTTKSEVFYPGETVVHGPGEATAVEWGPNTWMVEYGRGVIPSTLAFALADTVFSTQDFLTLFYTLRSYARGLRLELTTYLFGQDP
row,Compound,μ and σ1 dual binding
1,"CC[C@]1(N2CCN(CCc3ccccc3)CC2)CCO[C@@H](C)C1 (stereo in doubt) [Example 46, 1-(4-ethyl-2-methyltetrahydro-2H-pyran-4-yl)-4-phenethylpiperazine]",++
2,"CC[C@@]1(N2CCN(CCc3ccccc3)CC2)CCO[C@@H](C)C1 (stereo in doubt) [Example 47, 1-(4-ethyl-2-methyltetrahydro-2H-pyran-4-yl)-4-phenethylpiperazine]",++
3,"CC[C@@]1(N2CCN(Cc3ccc(C#N)cc3)CC2)CCO[C@@H](C)C1 (stereo in doubt) [Example 186, 4-((4-(4-ethyl-2-methyltetrahydro-2H-pyran-4-yl)piperazin-1-yl)methyl)benzonitrile]",++
4,"CC1(C)C[C@@](C(=O)c2ccccn2)(N2CCN(Cc3ccccc3)CC2)CCO1 [Example 2, (S)-(4-(4-benzylpiperazin-1-yl)-2,2-dimethyltetrahydro-2H-pyran-4-yl)(pyridin-2-yl)methanone]",++
5,"O=C(c1ccccn1)C1(N2CCN(Cc3ccccc3)CC2)CCOCC1 [Example 8, (4-(4-benzylpiperazin-1-yl)tetrahydro-2H-pyran-4-yl)(pyridin-2-yl)methanone]",++
6,"CC1(C)CC(C(=O)c2ccccc2)(N2CCN(Cc3ccccc3)CC2)CCO1 (stereo not shown) [Example 9, (4-(4-benzylpiperazin-1-yl)-2,2-dimethyltetrahydro-2H-pyran-4-yl)(phenyl)methanone]",++
7,"CC1(C)CC(C(=O)c2cccnc2)(N2CCN(Cc3ccccc3)CC2)CCO1 (stereo not shown) [Example 10, (4-(4-benzylpiperazin-1-yl)-2,2-dimethyltetrahydro-2H-pyran-4-yl)(pyridin-3-yl)methanone]",++
8,"CC(C)CN1CCN(C2(C(=O)c3ccccc3)CCOC(C)(C)C2)CC1 (stereo not shown) [Example 11, (4-(4-isobutylpiperazin-1-yl)-2,2-dimethyltetrahydro-2H-pyran-4-yl)(phenyl)methanone]",++
9,"CC(C)OCCN1CCN(C2(C(=O)c3ccccc3)CCOC(C)(C)C2)CC1 (stereo not shown) [Example 13, (4-(4-(2-isopropoxyethyl)piperazin-1-yl)-2,2-dimethyltetrahydro-2H-pyran-4-yl)(phenyl)methanone]",++
10,"CC1(C)CC(C(=O)c2ccccn2)(N2CCN(Cc3ccccc3)CC2)CC(C)(C)O1 [Example 17, (4-(4-benzylpiperazin-1-yl)-2,2,6,6-tetramethyltetrahydro-2H-pyran-4-yl)(pyridin-2-yl)methanone]",++
11,"CN(Cc1ccccc1)C1CN(C2(C(=O)c3ccccn3)CCOC(C)(C)C2)C1 (stereo not shown) [Example 19, (4-(3-(benzyl(methyl)amino)azetidin-1-yl)-2,2-dimethyltetrahydro-2H-pyran-4-yl)(pyridin-2-yl)methanone]",++
12,"O=C(c1ccccn1)C1(N2CCN(Cc3ccccc3)CC2)CCOC1 (stereo not shown) [Example 20, (3-(4-benzylpiperazin-1-yl)tetrahydrofuran-3-yl)(pyridin-2-yl)methanone]",++
13,"O=C(c1ccccn1)C1(C2CCN(Cc3ccccc3)CC2)CCOCC1 [Example 21, (4-(1-benzylpiperidin-4-yl)tetrahydro-2H-pyran-4-yl)(pyridin-2-yl)methanone]",++
14,C[C@@H]1C[C@@](C(=O)c2ccccn2)(N2CCN(Cc3ccccc3)CC2)CCO1 [Example 28],++
15,"c1ccc(CN2CCN(C3(c4ccccc4)CCOCC3)CC2)cc1 [Example 30, 1-benzyl-4-(4-phenyltetrahydro-2H-pyran-4-yl)piperazine]",++
16,"CCC1(N2CCN(Cc3ccccc3)CC2)CCOCC1 [Example 31, 1-benzyl-4-(4-ethyltetrahydro-2H-pyran-4yl)piperazine]",++
17,"CC1(C)CC(C)(N2CCN(Cc3ccccc3)CC2)CCO1 (stereo not shown) [Example 36, 1-benzyl-4-(2,2,4-trimethyltetrahydro-2H-pyran-4-yl)piperazine]",++
18,"CC(C)OCCN1CCN(C2(C)CCOC(C)(C)C2)CC1 (stereo not shown) [Example 37, 1-(2-isopropoxyethyl)-4-(2,2,4-trimethyltetrahydro-2H-pyran-4-yl)piperazine]",++

# Same assay, conditions: one class symbol for both Ki-σ1 (human σ1 receptor, A1) and Ki-μ (human μ-opioid receptor, A2); read-out: μ and σ1 dual binding
row,Compound,Ki [nM]
1,"CC[C@]1(N2CCN(Cc3ccc(C#N)cc3)CC2)CCO[C@@H](C)C1 (stereo in doubt) [Example 187, 4-((4-(4-ethyl-2-methyltetrahydro-2H-pyran-4-yl)piperazin-1-yl)methyl)benzonitrile]",> 500
2,"CC(C)CN1CCN(C2(C(=O)c3ccccn3)CCOC(C)(C)C2)CC1 (stereo not shown) [Example 14, (4-(4-isobutylpiperazin-1-yl)-2,2-dimethyltetrahydro-2H-pyran-4-yl)(pyridin-2-yl)methanone]",> 500
3,"CC(C)OCCN(C)C1CN(C2(C(=O)c3ccccn3)CCOC(C)(C)C2)C1 (stereo not shown) [Example 23, (4-(3-((2-isopropoxyethyl)(methyl)amino)azetidin-1-yl)-2,2-dimethyltetrahydro-2H-pyran-4-yl)(pyridin-2-yl)methanone]",> 500
4,C[C@@H]1C[C@@](C(=O)c2ccccn2)(N2CCN(Cc3ccccc3)CC2)CCO1 [Example 25],> 500
5,C[C@@H]1C[C@@](C(=O)c2ccccn2)(N2CCN(CCc3ccccc3)CC2)CCO1 [Example 26],< 500
6,C[C@H]1C[C@](C(=O)c2ccccn2)(N2CCN(Cc3ccccc3)CC2)CCO1 [Example 27],< 500

# Same assay, conditions: μ and σ1 dual binding, one class symbol for both Ki-σ1 (human σ1 receptor, A1) and Ki-μ (human μ-opioid receptor, A2)
row,Compound,Ki [nM]
1,"CC1(C)CC(C(=O)c2ccccn2)(N2CCN(Cc3ccccc3)CC2)CCO1 (stereo not shown) [Example 1, (4-(4-benzylpiperazin-1-yl)-2,2-dimethyltetrahydro-2H-pyran-4-yl)(pyridin-2-yl)methanone]",< 100
2,"CC1(C)C[C@](C(=O)c2ccccn2)(N2CCN(Cc3ccccc3)CC2)CCO1 [Example 3, (R)-(4-(4-benzylpiperazin-1-yl)-2,2-dimethyltetrahydro-2H-pyran-4-yl)(pyridin-2-yl)methanone]",< 100
3,"O=C(c1ccccc1)C1(N2CCN(Cc3ccccc3)CC2)CCOC2(CCCC2)C1 (stereo not shown) [Example 4, (9-(4-benzylpiperazin-1-yl)-6-oxaspiro[4.5]decan-9-yl)(phenyl)methanone]",< 100
4,"O=C(c1cccc(C(F)(F)F)n1)C1(N2CCN(Cc3ccccc3)CC2)CCOC2(CCCC2)C1 (stereo not shown) [Example 6, (9-(4-benzylpiperazin-1-yl)-6-oxaspiro[4.5]decan-9-yl)(6-(trifluoromethyl)pyridin-2-yl)methanone]",< 100
5,"CC(C)CN1CCN(C2(C(=O)c3ccccc3)CCOC3(CCCC3)C2)CC1 (stereo not shown) [Example 7, (9-(4-isobutylpiperazin-1-yl)-6-oxaspiro[4.5]decan-9-yl)(phenyl)methanone]",< 100
6,"CC(C)CCN1CCN(C2(C(=O)c3ccccc3)CCOC(C)(C)C2)CC1 (stereo not shown) [Example 12, (4-(4-isopentylpiperazin-1-yl)-2,2-dimethyltetrahydro-2H-pyran-4-yl)(phenyl)methanone]",< 500
7,"CC1(C)CC(C(=O)c2cccc(C(F)(F)F)n2)(N2CCN(Cc3ccccc3)CC2)CCO1 (stereo not shown) [Example 15, (4-(4-benzylpiperazin-1-yl)-2,2-dimethyltetrahydro-2H-pyran-4-yl)(6-(trifluoromethyl)pyridin-2-yl)methanone]",< 100
8,"CC(C)OCCN1CCN(C2(C(=O)c3cccc(C(F)(F)F)n3)CCOC(C)(C)C2)CC1 (stereo not shown) [Example 16, (4-(4-(2-isopropoxyethyl)piperazin-1-yl)-2,2-dimethyltetrahydro-2H-pyran-4-yl)(6-(trifluoromethyl)pyridin-2-yl)methanone]",< 500
9,"CC1(C)CC(C(=O)c2ccccn2)(N2CC3CN(Cc4ccccc4)CC3C2)CCO1 (stereo not shown) [Example 18, (4-(5-benzylhexahydropyrrolo[3,4-c]pyrrol-2(1H)-yl)-2,2-dimethyltetrahydro-2H-pyran-4-yl)(pyridin-2-yl)methanone]",< 500
10,"CC1(C)CC(C(=O)c2ccccn2)(C2CCN(Cc3ccccc3)CC2)CCO1 (stereo not shown) [Example 22, (4-(1-benzylpiperidin-4-yl)-2,2-dimethyltetrahydro-2H-pyran-4-yl)(pyridin-2-yl)methanone]",< 500
11,"CC1(C)CC(C(=O)c2ccccn2)(N2CCCN(Cc3ccccc3)CC2)CCO1 (stereo not shown) [Example 24, (4-(4-benzyl-1,4-diazepan-1-yl)-2,2-dimethyltetrahydro-2H-pyran-4-yl)(pyridin-2-yl)methanone]",< 500
12,"CCC1(N2CCN(Cc3ccccc3)CC2)CCOC2(CCCC2)C1 (stereo not shown) [Example 29, 1-benzyl-4-(9-ethyl-6-oxaspiro[4.5]decan-9-yl)piperazine]",< 500
13,"c1ccc(CN2CCN(C3(c4ccccc4)CCOC4(CCCC4)C3)CC2)cc1 (stereo not shown) [Example 32, 1-benzyl-4-(9-phenyl-6-oxaspiro[4.5]decan-9-yl)piperazine]",< 100
14,"CC(C)CN1CCN(C2(c3ccccc3)CCOC3(CCCC3)C2)CC1 (stereo not shown) [Example 33, 1-isobutyl-4-(9-phenyl-6-oxaspiro[4.5]decan-9-yl)piperazine]",< 500
15,"c1ccc(CN2CCN(C3(Cc4ccccc4)CCOC4(CCCC4)C3)CC2)cc1 (stereo not shown) [Example 34, 1-benzyl-4-(9-benzyl-6-oxaspiro[4.5]decan-9-yl)piperazine]",< 500
16,"CC1(C)CC(c2ccccc2)(N2CCN(Cc3ccccc3)CC2)CCO1 (stereo not shown) [Example 35, 1-benzyl-4-(2,2-dimethyl-4-phenyltetrahydro-2H-pyran-4-yl)piperazine]",< 500
